Laboratory results reported in patent publication US8642651B2, “Methods and compositions for improved chromium complexes” (VDF Futureceuticals, Inc., priority 2004, dated 2014).
Where “and” joins values, the source holds several entries; their conditions need not be identical. Identical values can stand only once.

Legend:
[1] = system: Streptozocin-induced insulin deficient rats; experiment: Fasted blood glucose in streptozocin-induced insulin deficient rats, chromium compounds in drinking water for four weeks; format: in vivo; conditions: for Fasted Blood Glucose (fold increase over four weeks): drinking water, about 42 μg/kg, four hrs fasting
Procedure: In vivo experiments gave much more dramatic differences, which are summarized in Table 1 below in which the increase in fasting blood glucose was measured after four weeks as compared to untreated animals: Streptozocin-induced insulin deficient rats were used to evaluate the insulin potentiating activity of several compounds. […] As consequence, these rats develop severe hyperglycemia. So far, certain known chromium compounds were known to potentiate action of insulin, however, the actual mechanism was not clearly understood. […] In our studies in vivo, chromium compounds were provided in drinking water for four weeks at a concentration of about 42 μg/kg. Vein blood was collected following four hrs fasting and used for fasted blood glucose level test. The study results for two tests are given below in Table 3 in which the increase in blood glucose in given as a fold increase over four weeks.

L6 muscle cells = experiment: Total glucose uptake in L6 muscle cells (2-NBDG fluorescence); format: cell-based; conditions: 2 hrs treatment
Procedure: Total glucose uptake was measure using fluorescent analog of glucose, 2-NBDG (2-(N-(7-nitrobenz-2-oxa-1,3-diazol-4-yl)amino)-2-deoxyglucose) from Molecular Probes Inc. L6 myoblastic cells were treated for 2 hrs with tested compounds in culture medium SkBM from Clonetics. After washing, cells were transferred to HBSA (Hepes-buffered Saline), pH 7.0 with 50 mcM of 2-NBDG without glucose. One minute later, cells were washed with ice-cold PBS, and fixed in −20 C 70% ethanol. Fluorescence was measured at 480/530 (excitation/emission).

Molecule | Fasted Blood Glucose (fold increase over four weeks) ([1]; STUDY 1) | Fold over Control, Average (L6 muscle cells; Conc. 10 nM) | Fold over Control, Average (L6 muscle cells; Conc. 100 nM) | Fold over Control, Average (L6 muscle cells; Conc. 1000 nM) | further results
CN(C)C(=N)N=C(N)N [Metformin, reference compound] | 0.96 fold | – | – | – | –
O.O.O.O.O.O.[Cl][Cr]([Cl])[Cl] [CrCl3, CrCl3 hexahydrate, reference compound] | 1.32 fold | 1.55 fold | 2.05 fold | 2.08 fold | –
chromium picolinate [Cr-picolinate, reference compound] | 2.02 fold | – | – | – | Fasted Blood Glucose (fold increase over four weeks) ([1]; STUDY 2): 2.37 fold; BLOOD GLUCOSE INCREASE (% of untreated) ([1]; diabetic rats, after four weeks, untreated = 100%): 95.56%; BLOOD GLUCOSE INCREASE ([1]; diabetic rats, increase in fasting blood glucose after four weeks): 2.37
chromium niacin [CrNiacin, reference compound] | 1.91 fold | – | – | – | –
Chromium-mono-Aminooxyacetate [CROA-1] | – | 1.72 fold | 2.36 fold | 2.39 fold | Fold over Control (single values) (L6 muscle cells; Conc. 10 nM): 1.41 fold and 1.66 fold and 2.10 fold; Fold over Control (single values) (L6 muscle cells; Conc. 100 nM): 2.12 fold and 2.16 fold and 2.80 fold; Fold over Control (single values) (L6 muscle cells; Conc. 1000 nM): 2.58 fold and 2.10 fold and 2.50 fold
